Here are results for five molecules from ChEMBL document CHEMBL4177622, “Enhanced radical scavenging activity of a procyanidin B3 analogue comprised of a dimer of planar catechin” (Bioorg Med Chem Lett, 2017).

This experiment is described as follows: Antioxidant activity assessed as second order rate constant for galvinoxyl radical scavenging activity in presence of deaerated conditions by UV-Vis spectrophotometric analysis. The format is functional.
On to `Oc1cc(O)c2c(c1)O[C@H](c1ccc(O)c(O)c1)[C@@H](O)[C@@H]2c1c(O)cc(O)c2c1O[C@H](c1ccc(O)c(O)c1)[C@@H](O)C2`, for which the K is 1 ×10² /mol/s.

For `Oc1cc(O)c2c(c1)O[C@H](c1ccc(O)c(O)c1)[C@@H](O)C2`, the K turned out to be 2.6 ×10¹ /mol/s. Take `CC1(C)O[C@H]2Cc3c(O)cc(O)c([C@@H]4c5c(O)cc(O)cc5O[C@H](c5ccc(O)c(O)c5)[C@H]4O)c3O[C@@H]2c2cc(O)c(O)cc21`: the K was 1.89 ×10² /mol/s. Regarding `CC1(C)O[C@H]2[C@H](c3c(O)cc(O)c4c3O[C@@H]3c5cc(O)c(O)cc5C(C)(C)O[C@H]3C4)c3c(O)cc(O)cc3O[C@@H]2c2cc(O)c(O)cc21`, the K stood at 2.85 ×10² /mol/s. For the molecule `CC1(C)O[C@H]2Cc3c(O)cc(O)cc3O[C@@H]2c2cc(O)c(O)cc21`, the K turned out to be 1.5 ×10² /mol/s.
